This note sets out measurements from patent publication US20260108615A1, “SELF-ASSEMBLED MUCOADHESIVE BIOPOLYMER PARTICLE RELEASE SYSTEM AND PREPARATION METHOD THEREOF” (SZEGEDI TUDOMÁNYEGYETEM, priority 2021, published 2026).

Holding throughout (format): physicochemical
A short description of data set [1]: in-vitro drug-releasing profile of HBA. The following applies: FIG. 18.
Data set [2] can be described thus: in vitro DOX release through cellulose membrane into PBS buffer. How it is done:
The DOX release was measured according to the following: the in vitro experiments of the DOX releasing were performed using a cellulose membrane (Sigma-Aldrich, avg. flat width 10 mm (0.4 in.)). The released DOX amount from the bare and conjugated form was spectrophotometrically measured by monitoring the change in the intensity of the characteristic absorbance peak of DOX at λ=481 nm. DOX concentration is directly proportional to the maximal absorption values estimated at 481 nm [CDOX (mg/ml) (A at 481 nm)/18.836; R^2=0.996], according to the calibration curve previously determined within the range of 0-0.066 mg/ml. Solid powder of pure drug and conjugated form (corresponding to 0.045 mg/ml of DOX) were inserted in a cellulose membrane that was closed and dropped into 20 ml of a PBS buffer solution with pH=7.4 (37° C.; 0.9 wt % NaCl content). 3 ml of the aqueous solution was pulled from the release media at selected interval times and DOX concentration was measured. The release profiles of DOX released from different forms are shown in FIG. 14a in percent form and FIG. 14b in concentration form, releasing from the bare DOX was too fast a process with a maximum releasing percent of 78%. […] According to Table 2, releasing from the bare DOX data were fitted with the Higuchi model that describes the drug release a diffusion process based on Fick's law which is square root time-dependent, assumes the diffusivity of the drug is constant.

Data set [3] in a line: in-vitro drug-releasing profile of KETO. The conditions noted are these: FIG. 17.

As to `OCc1ccc(O)cc1` [Bare HBA, 4-hydroxybenzyl alcohol], the HBA releasing process entry in data set [1] is “very rapid release process for the first 3 h”.
Regarding `COc1cccc2c1C(=O)c1c(O)c3c(c(O)c1C2=O)C[C@@](O)(C(=O)CO)C[C@@H]3O[C@H]1C[C@H](N)[C@H](O)[C@H](C)O1` [Pure DOX, doxorubicin], the “concentration of DOX in PBS buffer solution after one day (decomposition)” value in data set [2] (PBS at 37° C., after one day of release) is “continuously decreased”. The same compound gave a maximum releasing percent in data set [2] (PBS pH=7.4, 37° C., 0.9 wt % NaCl, cellulose membrane) of 78%. Further, in data set [2] (fit of DOX release data), the First-order model k came out at 0.2689, the Higuchi model k is 36.808, the Hixson-Crowell model k was found to be 0.0063 and the Korsmeyer-Peppas model k is on record as 26.18. Also, in data set [2] (fit of DOX release data), the “Korsmeyer-Peppas model n (release exponent)” value was determined as 0.763 and the Zero-order model k is listed as 13.11.
Consider `CC(C(=O)O)c1cccc(C(=O)c2ccccc2)c1` (stereo not shown) [bare KETO, ketoprofen], for which the KETO releasing process entry in data set [3] is recorded as “fast releasing process for the first 5 h”.
